{"source": "paper PMC4938538", "about": "“Inhibition of Pig Phosphoenolpyruvate Carboxykinase Isoenzymes by 3-Mercaptopicolinic Acid and Novel Inhibitors” (PLoS ONE, 2016)", "assay_type_in_all_cases": "biochemical, pig", "key": {"PEPCK-C 139Leu [1]": {"target": "T1, PEPCK-C 139Leu (Sus scrofa, UniProt A0A4X1UM84, M139L)", "T1 construct": "made in house; host or cells: Escherichia coli BL21 (DE3)", "T1 sequence (A0A4X1UM84 1-622 M139L)": "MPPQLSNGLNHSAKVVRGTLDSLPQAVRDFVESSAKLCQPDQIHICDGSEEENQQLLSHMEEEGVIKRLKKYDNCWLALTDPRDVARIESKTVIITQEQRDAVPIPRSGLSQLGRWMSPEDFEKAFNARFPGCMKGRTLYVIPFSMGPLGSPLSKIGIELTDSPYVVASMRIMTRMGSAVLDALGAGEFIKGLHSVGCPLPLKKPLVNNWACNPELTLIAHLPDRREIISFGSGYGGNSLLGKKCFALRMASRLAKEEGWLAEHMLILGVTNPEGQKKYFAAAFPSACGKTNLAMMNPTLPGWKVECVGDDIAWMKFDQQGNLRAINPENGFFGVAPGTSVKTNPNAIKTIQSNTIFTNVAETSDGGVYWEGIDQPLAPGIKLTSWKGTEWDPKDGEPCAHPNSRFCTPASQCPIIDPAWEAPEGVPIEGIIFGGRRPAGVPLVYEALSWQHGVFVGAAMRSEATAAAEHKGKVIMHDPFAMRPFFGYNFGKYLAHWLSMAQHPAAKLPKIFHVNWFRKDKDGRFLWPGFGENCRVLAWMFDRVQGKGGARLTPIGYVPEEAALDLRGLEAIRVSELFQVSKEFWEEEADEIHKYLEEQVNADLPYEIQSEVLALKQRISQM", "assay": "3-MP inhibition kinetics (double reciprocal, secondary and Dixon plots)", "experimental": "(§1) PEPCK-C activity was measured in an UNICAM 500 spectrometer (UNICAM Analytical Systems, UK) with coupled spectrophotometric assays using pyruvate kinase and lactate dehydrogenase as auxiliary enzymes in PEP synthesis reaction and malate dehydrogenase in the reverse reaction.\n(§2) 3-MP inhibitions assays in OAA synthesis direction were carried out as described before with the exception of the variable substrate (50–600 μM for PEP and 10–100 μM for GDP) and 3-MP concentration (10–100 μM). Assays in the direction of PEP synthesis were performed in 1 mL of a 100 mM HEPES buffer pH 7.4, containing 10 mM DTT, 0.2 mM MnCl2, 2 mM MgCl2, 1 mM GTP or 400 μM OAA, 1 mM ADP, 0.2 mM NADH, PEPCK-C and 5 units of each pyruvate kinase and lactate dehydrogenase. Reactions were initiated by addition of OAA. Variable substrates were 5–50 μM OAA or 25–500 μM GTP and 3-MP concentrations were between 10–400 μM. Rates were calculated by measuring the decreasing slope at 340 nm of absorbance after subtracting the rate of spontaneous NADH oxidation in the case of OAA synthesis or the rate of the blank which contained all the components of the mix but PEPCK-C in the case of PEP synthesis.\n(§3) 3-MP inhibition assays were fitted in double reciprocal plots. To describe the mixed non-competitive inhibition, the double reciprocal equation can be written as: 1/v = Km/Vmax (1+[I]/Ki) 1/[S]+1/Vmax (1+[I]/αKi) (2)\n(§4) Ki and αKi are the dissociation constants of the enzyme-inhibitor complex and the enzyme-inhibitor-substrate complex, respectively.\n(§5) The equation for the Dixon plot is: 1/v = Km/Vmax[S]+1/Vmax+Km/Vmax[S]Ki (5)"}, "PEPCK-C 139Met": {"target": "T2, PEPCK-C 139Met (Sus scrofa, UniProt A0A4X1UM84)", "T2 sequence (A0A4X1UM84 1-622)": "T1 sequence (A0A4X1UM84 1-622 M139L) with L139M", "assay": "3-MP inhibition kinetics (double reciprocal, secondary and Dixon plots)", "design": "made in house; host or cells: Escherichia coli BL21 (DE3)", "experimental": "as §1, §2, §3, §4, §5"}, "PEPCK-C 139Leu [2]": {"target": "T1, PEPCK-C 139Leu", "assay": "Compound 1 and 2 inhibition assays in PEP synthesis direction (Vmax and Km)", "settings": "for Vmax (GTP) in presence of inhibitor / Vmax (OAA) in presence of inhibitor: 50 μM inhibitor; for Vmax (OAA) in presence of inhibitor: OAA variable substrate", "experimental": "as §1, §2\nCompound 1 and 2 inhibitions assays were performed in PEP synthesis direction as described in 3-MP inhibition assays. Variable substrates were 10–100 μM OAA or 25–500 μM GTP, inhibitors concentrations were around IC50 value (100 μM compound 1 or 50 μM compound 2) and 20 units of each pyruvate kinase and lactate dehydrogenase were also added.\nData from compound 1 and 2 inhibition assays were represented in double reciprocal plots to calculate Vmax and Km values using GraphPad Prism 3.03 software."}}, "note": "Numbering of substitutions follows the chain as printed. Values joined by “and” are separate entries in the source; they are usually repeats but may differ in a detail not shown here. Equal values may be shown once. “Also recorded” adds a separate entry of the source. Read-outs that look alike come from different tables or passages of the source."}
{"smiles": "O=C(O)c1ncccc1S", "note": "[3-MP, 3-mercaptopicolinic acid]", "values": [{"measurement": "Pattern of inhibition (GDP)", "setting": "PEPCK-C 139Leu [1]; 139Leu, GDP as variable substrate", "value": "uncompetitive inhibitor"}, {"measurement": "Pattern of inhibition (GTP)", "setting": "PEPCK-C 139Leu [1]; 139Leu, GTP as variable substrate", "value": "uncompetitive inhibitor"}, {"measurement": "Pattern of inhibition (OAA)", "setting": "PEPCK-C 139Leu [1]; 139Leu, OAA as variable substrate", "value": "mixed non-competitive inhibitor; also recorded: Mixed NC"}, {"measurement": "αKi (OAA)", "setting": "PEPCK-C 139Leu [1]; 139Leu, OAA as variable substrate, PEP synthesis direction", "value": "21 ± 13", "unit": "ns μM"}, {"measurement": "Ki", "setting": "PEPCK-C 139Leu [1]; 139Leu, OAA as variable substrate, PEP synthesis direction, read-out: Ki (OAA)", "value": "29 ± 1", "unit": "µM"}, {"measurement": "Pattern of inhibition (PEP)", "setting": "PEPCK-C 139Leu [1]; 139Leu, PEP as variable substrate", "value": "mixed non-competitive inhibitor; also recorded: Mixed NC"}, {"measurement": "αKi (PEP)", "setting": "PEPCK-C 139Leu [1]; 139Leu, PEP as variable substrate, OAA synthesis direction", "value": "31 ± 5 μM and 31 ± 5 ns μM"}, {"measurement": "Ki", "setting": "PEPCK-C 139Leu [1]; 139Leu, PEP as variable substrate, OAA synthesis direction, read-out: Ki (PEP)", "value": "19 ± 4", "unit": "µM"}, {"measurement": "Ki", "setting": "PEPCK-C 139Leu [1]; 139Leu, with respect to GDP, Dixon plot, substrates saturating, read-out: Ki (GDP)", "value": "45 ± 0.8", "unit": "µM"}, {"measurement": "Ki", "setting": "PEPCK-C 139Leu [1]; 139Leu, with respect to GTP, Dixon plot, substrates saturating, read-out: Ki (GTP)", "value": "873 ± 144", "unit": "µM"}, {"measurement": "Ki for 139Leu larger than for 139Met (OAA binding)", "setting": "PEPCK-C 139Leu [1]; OAA as variable substrate", "value": 50, "unit": "%"}, {"measurement": "Pattern of inhibition (GDP)", "setting": "PEPCK-C 139Met; 139Met, GDP as variable substrate", "value": "uncompetitive inhibitor"}, {"measurement": "Pattern of inhibition (GTP)", "setting": "PEPCK-C 139Met; 139Met, GTP as variable substrate", "value": "uncompetitive inhibitor"}, {"measurement": "Pattern of inhibition (OAA)", "setting": "PEPCK-C 139Met; 139Met, OAA as variable substrate", "value": "mixed non-competitive inhibitor; also recorded: Mixed NC"}, {"measurement": "αKi (OAA)", "setting": "PEPCK-C 139Met; 139Met, OAA as variable substrate, PEP synthesis direction", "value": "49 ± 18", "unit": "µM"}, {"measurement": "Ki", "setting": "PEPCK-C 139Met; 139Met, OAA as variable substrate, PEP synthesis direction, read-out: Ki (OAA)", "value": "18 ± 4", "unit": "µM"}, {"measurement": "Pattern of inhibition (PEP)", "setting": "PEPCK-C 139Met; 139Met, PEP as variable substrate", "value": "mixed non-competitive inhibitor; also recorded: Mixed NC"}, {"measurement": "αKi (PEP)", "setting": "PEPCK-C 139Met; 139Met, PEP as variable substrate, OAA synthesis direction", "value": "20 ± 4", "unit": "µM"}, {"measurement": "Ki", "setting": "PEPCK-C 139Met; 139Met, PEP as variable substrate, OAA synthesis direction, read-out: Ki (PEP)", "value": "16 ± 2", "unit": "µM"}, {"measurement": "Ki", "setting": "PEPCK-C 139Met; 139Met, with respect to GDP, Dixon plot, substrates saturating, read-out: Ki (GDP)", "value": "45 ± 3", "unit": "µM"}, {"measurement": "Ki", "setting": "PEPCK-C 139Met; 139Met, with respect to GTP, Dixon plot, substrates saturating, read-out: Ki (GTP)", "value": "273 ± 68", "unit": "µM"}, {"measurement": "Ki fold lower for 139Met than 139Leu (GTP)", "setting": "PEPCK-C 139Met; GTP as variable substrate", "value": 3, "unit": "fold"}, {"measurement": "Ki fold lower for 139Met than 139Leu (OAA)", "setting": "PEPCK-C 139Met; OAA as variable substrate", "value": 1.6, "unit": "fold"}]}
{"smiles": "Cn1nc(-c2ccc(C=NNC(=O)c3ccc(Cl)cc3Cl)s2)cc1C(F)(F)F", "note": "[compound 2, N'1-({5-[1-methyl-5-(trifluoromethyl)-1H-pyrazol-3-yl]-2-thienyl}methylidene)-2,4-dichlorobenzene-1-carbohydrazide]", "values": [{"measurement": "Reduction of Km value for GTP in presence of the inhibitor", "setting": "PEPCK-C 139Leu [2]; GTP variable substrate", "value": "about 30%"}, {"measurement": "Vmax (GTP) in presence of inhibitor", "setting": "PEPCK-C 139Leu [2]; GTP variable substrate", "value": "6.1 ± 1.0", "unit": "ns μmol min^-1 mg^-1"}, {"measurement": "Vmax (OAA) in presence of inhibitor", "setting": "PEPCK-C 139Leu [2]", "value": "12.7 µmol/min/mg and 12.7 ± 1.1 µmol/min/mg"}]}
{"smiles": "CC(=NNC(=S)NC1CCCCC1)c1sc(-c2cccs2)nc1C", "note": "[compound 1, N1-cyclohexyl-2-{1-[4-methyl-2-(2-thienyl)-1,3-thiazol-5-yl]ethylidene}hydrazine-1-carbothiamide]", "values": [{"measurement": "Vmax (GTP) in presence of inhibitor", "setting": "PEPCK-C 139Leu [2]; GTP variable substrate", "value": "7.2 μmol min^-1 mg^-1 and 7.2 ± 0.4 ns μmol min^-1 mg^-1"}, {"measurement": "Vmax (OAA) in presence of inhibitor", "setting": "PEPCK-C 139Leu [2]", "value": "9.4 μmol min^-1 mg^-1 and 9.4 ± 1.3 ns μmol min^-1 mg^-1"}]}
